Measurements published in patent publication US9562053B2, “Benzo-fused heterocyclic derivatives useful as agonists of GPR120” (Janssen Pharmaceutica NV, priority 2013, dated 2017).

Each molecule was assayed against T1, long form of human GPR120 (Homo sapiens, UniProt Q5NUL3) (assay: Human GPR120 DiscoveRx PathHunter Beta-Arrestin Assay, Procedure β-arrestin A (3000 cells per well)). Details: read-out: GPR120 B-arrestin A EC50.
T1 construct: host or cells: PathHunter CHO-K1 GPR120 β-Arrestin Cell Line
T1 sequence (Q5NUL3 1-377 isoform Q5NUL3-1): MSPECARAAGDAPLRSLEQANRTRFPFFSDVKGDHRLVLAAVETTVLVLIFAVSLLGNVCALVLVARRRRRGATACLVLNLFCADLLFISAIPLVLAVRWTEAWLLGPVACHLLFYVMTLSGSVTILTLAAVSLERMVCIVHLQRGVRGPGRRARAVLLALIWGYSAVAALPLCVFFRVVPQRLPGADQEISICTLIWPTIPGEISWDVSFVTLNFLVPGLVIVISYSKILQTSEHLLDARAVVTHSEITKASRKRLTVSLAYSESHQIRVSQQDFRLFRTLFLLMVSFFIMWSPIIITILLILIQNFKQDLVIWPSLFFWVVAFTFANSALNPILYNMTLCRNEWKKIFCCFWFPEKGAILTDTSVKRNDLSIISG
Assay type: cell-based
How it was run: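 PathHunter CHO-K1 cells with long-form receptor, 3000/well, seeded overnight at 37 °C; equilibrated 60 min at 37 °C in HBSS/20 mM HEPES/0.1% BSA, pH 7.4. Compound serial dilutions (25–0.012 μM) added for 90 min at 37 °C, detection 60 min at room temperature, luminescence read; EC50 from % of positive control, Hill slope fixed at 1.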

SMILES	EC50 [nM]
Cc1c(CCC(=O)O)ccc(OCc2cc(F)cc3cc(C(C)C)oc23)c1C [Compound 22, 3-(4-{[5-Fluoro-2-(1-methylethyl)-1-benzofuran-7-yl]methoxy}-2,3-dimethylphenyl)propanoic acid]	797
COCc1cc2cc(F)cc(COc3ccc(CCC(=O)O)c(C)c3C)c2o1 [Compound 21, 3-(4-{[5-Fluoro-2-(methoxymethyl)-1-benzofuran-7-yl]methoxy}-2,3-dimethylphenyl)propanoic acid]	458
CCOc1ccc2cc(CC)oc2c1COc1ccc(CCC(=O)O)c(C)c1C [Compound 66, 3-{4-[(6-Ethoxy-2-ethyl-1-benzofuran-7-yl)methoxy]-2,3-dimethylphenyl}propanoic acid]	1410
Cc1oc2cc(Cl)cc(COc3ccc(CCC(=O)O)c(C)c3C)c2c1C [Compound 80, 3-{4-[(6-Chloro-2,3-dimethyl-1-benzofuran-4-yl)methoxy]-2,3-dimethylphenyl}propanoic acid]	249
Cc1cc2c(F)c(OC(F)(F)F)c(F)c(COc3ccc(CCC(=O)O)c(F)c3F)c2o1 [Compound 75, 3-(4-{[4,6-Difluoro-2-methyl-5-(trifluoromethoxy)-1-benzofuran-7-yl]methoxy}-2,3-difluorophenyl)propanoic acid]	394
CCc1cc2cc(Cl)c(OCC(F)(F)F)c(COc3ccc(CCC(=O)O)c(C)c3C)c2o1 [Compound 64, 3-(4-{[5-Chloro-2-ethyl-6-(2,2,2-trifluoroethoxy)-1-benzofuran-7-yl]methoxy}-2,3-dimethylphenyl)propanoic acid]	271
CCOc1c(Cl)cc2cc(CC)oc2c1COc1ccc(CCC(=O)O)c(C)c1C [Compound 62, 3-{4-[(5-Chloro-6-ethoxy-2-ethyl-1-benzofuran-7-yl)methoxy]-2,3-dimethylphenyl}propanoic acid]	274
CCCc1cc(OCc2cc(OC(F)(F)F)cc3cc(CC)oc23)c(F)cc1CCC(=O)O [Compound 50, 3-(4-{[2-Ethyl-5-(trifluoromethoxy)-1-benzofuran-7-yl]methoxy}-5-fluoro-2-propylphenyl)propanoic acid]	496
CCCc1cc2cc(C(F)(F)F)cc(COc3ccc(CCC(=O)O)c(C)c3C)c2o1 [Compound 37, 3-(2,3-Dimethyl-4-{[2-propyl-5-(trifluoromethyl)-1-benzofuran-7-yl]methoxy}phenyl)propanoic acid]	271
CCc1cc2cc(Cl)cc(COc3ccc(CCC(=O)O)c4c3CCC4)c2o1 [Compound 54, 3-{7-[(5-Chloro-2-ethyl-1-benzofuran-7-yl)methoxy]-2,3-dihydro-1H-inden-4-yl}propanoic acid]	429
Cc1c(CCC(=O)O)ccc(OCc2cc(Cl)cc3cn(C)nc23)c1C [Compound 8, 3-{4-[(5-Chloro-2-methyl-2H-indazol-7-yl)methoxy]-2,3-dimethylphenyl}propanoic acid]	613
CCCc1cc2cc(Cl)cc(COc3ccc(CCC(=O)O)c(C)c3C)c2o1 [Compound 31, 3-{4-[(5-Chloro-2-propyl-1-benzofuran-7-yl)methoxy]-2,3-dimethylphenyl}propanoic acid]	232
Cc1cc2cc(Cl)c(C)c(COc3ccc(CCC(=O)O)c(C)c3C)c2o1 [Compound 85, 3-{4-[(5-Chloro-2,6-dimethyl-1-benzofuran-7-yl)methoxy]-2,3-dimethylphenyl}propanoic acid]	238
CC#Cc1cc(COc2ccc(CCC(=O)O)c(C)c2C)c2oc(CCC)cc2c1 [Compound 58, 3-{2,3-Dimethyl-4-[(2-propyl-5-prop-1-yn-1-yl-1-benzofuran-7-yl)methoxy]phenyl}propanoic acid]	410
CC#Cc1cc(COc2ccc(CCC(=O)O)c(C)c2C)c2oc(C)cc2c1 [Compound 83, 3-{2,3-Dimethyl-4-[(2-methyl-5-prop-1-yn-1-yl-1-benzofuran-7-yl)methoxy]phenyl}propanoic acid]	440
CCc1cc2ccc(OC(F)F)c(COc3ccc(CCC(=O)O)c(C)c3C)c2o1 [Compound 70, 3-(4-{[6-(Difluoromethoxy)-2-ethyl-1-benzofuran-7-yl]methoxy}-2,3-dimethylphenyl)propanoic acid]	2500
CCOc1cc(COc2ccc(CCC(=O)O)c(C)c2C)c2oc(CC)cc2c1 [Compound 29, 3-{4-[(5-Ethoxy-2-ethyl-1-benzofuran-7-yl)methoxy]-2,3-dimethylphenyl}propanoic acid]	616

Continued by falling EC50, values first:

EC50 [nM]	SMILES
231	CCc1cc2cc(Cl)c(OCCOC)c(COc3ccc(CCC(=O)O)c(C)c3C)c2o1 [Compound 63, 3-(4-{[5-Chloro-2-ethyl-6-(2-methoxyethoxy)-1-benzofuran-7-yl]methoxy}-2,3-dimethylphenyl)propanoic acid]
230	CCc1cc2cc(Cl)c(OC)c(COc3ccc(CCC(=O)O)c(C)c3C)c2o1 [Compound 44, 3-{4-[(5-Chloro-2-ethyl-6-methoxy-1-benzofuran-7-yl)methoxy]-2,3-dimethylphenyl}propanoic acid]
223	CCc1cc2cc(Cl)c(OC(F)F)c(COc3ccc(CCC(=O)O)c(C)c3C)c2o1 [Compound 69, 3-(4-{[5-Chloro-6-(difluoromethoxy)-2-ethyl-1-benzofuran-7-yl]methoxy}-2,3-dimethylphenyl)propanoic acid]
221	CCc1cc2cc(Cl)c(OCC(C)C)c(COc3ccc(CCC(=O)O)c(C)c3C)c2o1 [Compound 67, 3-(4-{[5-Chloro-2-ethyl-6-(2-methylpropoxy)-1-benzofuran-7-yl]methoxy}-2,3-dimethylphenyl)propanoic acid]
197	CCCc1cc2cc(I)cc(COc3ccc(CCC(=O)O)c(C)c3C)c2o1 [Compound 47, 3-{4-[(5-Iodo-2-propyl-1-benzofuran-7-yl)methoxy]-2,3-dimethylphenyl}propanoic acid]
190	CCc1cc2cc(Cl)c(CC)c(COc3ccc(CCC(=O)O)c(C)c3C)c2o1 [Compound 61, 3-{4-[(5-Chloro-2,6-diethyl-1-benzofuran-7-yl)methoxy]-2,3-dimethylphenyl}propanoic acid]
176	CCCc1cc2cc(OC(F)F)cc(COc3ccc(CCC(=O)O)c(C)c3C)c2o1 [Compound 77, 3-(4-{[5-(Difluoromethoxy)-2-propyl-1-benzofuran-7-yl]methoxy}-2,3-dimethylphenyl)propanoic acid]
144	Cc1cc2cc(OC(F)F)cc(COc3ccc(CCC(=O)O)c(C)c3C)c2o1 [Compound 76, 3-(4-{[5-(Difluoromethoxy)-2-methyl-1-benzofuran-7-yl]methoxy}-2,3-dimethylphenyl)propanoic acid]
121	Cc1cc2cc(Cl)cc(COc3ccc(CCC(=O)O)c(C)c3C)c2o1 [Compound 78, 3-{4-[(5-Chloro-2-methyl-1-benzofuran-7-yl)methoxy]-2,3-dimethylphenyl}propanoic acid]
119	Cc1cc2cc3c(c(COc4ccc(CCC(=O)O)c(C)c4C)c2o1)OC(F)(F)O3 [Compound 89, 3-{4-[(2,2-Difluoro-6-methylfuro[2,3-f][1,3]benzodioxol-4-yl)methoxy]-2,3-dimethylphenyl}propanoic acid]
85	Cc1cc2cc(OC(F)(F)F)cc(COc3ccc(CCC(=O)O)c(C)c3C)c2o1 [Compound 36, 3-(2,3-Dimethyl-4-{[2-methyl-5-(trifluoromethoxy)-1-benzofuran-7-yl]methoxy}phenyl)propanoic acid]
